In ChEMBL document CHEMBL1909046, “DrugMatrix in vitro pharmacology data” one finds IC50 and Ki data, which are given here for 20 compounds.

pIC50, pKi: −log10 of the molar value.

Assay [1] has as its target Sigma non-opioid intracellular receptor 1 (Homo sapiens, UniProt Q99720). Put plainly: DRUGMATRIX: Sigma1 radioligand binding (ligand: [3H] Haloperidol). It counts as cell membranes, Jurkat, Membrane. To be noted: Not Active = under 50% inhibition at 10 µM; for IC50: jurkat; for pIC50: read-out: IC50; for pKi: read-out: Ki.
Assay [2] in a line: DRUGMATRIX: Glutamate, NMDA, Phencyclidine radioligand binding (ligand: [3H] TCP). Format: cell membranes, Rattus norvegicus, Wistar, Cerebral cortex, Membrane. To be noted: Not Active = under 50% inhibition at 10 µM.
Assay [3] is described as follows: DRUGMATRIX: Glutamate, NMDA, Agonism radioligand binding (ligand: [3H] CGP-39653). Format: cell membranes, Rattus norvegicus, Wistar, Cerebral cortex, Membrane. To be noted: Not Active = under 50% inhibition at 10 µM.
The nature of assay [4]: DRUGMATRIX: Calcium Channel Type L, Benzothiazepine radioligand binding (ligand: [3H] Diltiazem). It counts as cell membranes, Rattus norvegicus, Wistar, Brain, Membrane. The following applies: Not Active = under 50% inhibition at 10 µM.
A short description of assay [5]: DRUGMATRIX: beta-Lactamase enzyme inhibition (substrate: Nitrocefin). To be noted: Not Active = under 50% inhibition at 10 µM. Set-up: species or system Bacillus cereus.

Chain of Sigma non-opioid intracellular receptor 1 (Q99720 whole entry): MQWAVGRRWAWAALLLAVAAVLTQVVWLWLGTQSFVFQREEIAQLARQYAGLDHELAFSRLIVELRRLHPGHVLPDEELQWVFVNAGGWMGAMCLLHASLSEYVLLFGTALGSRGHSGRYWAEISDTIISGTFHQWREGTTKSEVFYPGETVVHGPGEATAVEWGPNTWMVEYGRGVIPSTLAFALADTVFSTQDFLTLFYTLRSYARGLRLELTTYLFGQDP

As usually defined, the pIC50 is the negative decadic logarithm of the IC50, by convention in mol/L. What is called pKi is −log10 of the Ki, conventionally taken in molar units. Take `COc1ccc(CCN(C)CCCC(C#N)(c2ccc(OC)c(OC)c2)C(C)C)cc1OC` (centres undefined): the IC50 entry in assay [1], in assay [2], in assay [3] and in assay [5] was “Not Active” throughout. Also, the Ki result in assay [2], in assay [3] and in assay [5] was “Not Active” each time. The pIC50 in assay [4] (read-out: IC50) is 7.85. For the same compound, the pKi in assay [4] (read-out: Ki) was 7.92.

Take `CC(C)Cc1ccc([C@@H](C)C(=O)O)cc1` [(R)-IBUPROPHEN]: the IC50 entry in assay [1], in assay [2], in assay [3], in assay [4] and in assay [5] was “Not Active” throughout. Also, the Ki entry in assay [2], in assay [3], in assay [4] and in assay [5] was “Not Active” in each case.

`Fc1ccc(C(c2ccc(F)cc2)N2CCN(C/C=C/c3ccccc3)CC2)cc1` [FLUNARIZINE]: in assay [1], the pIC50 was 7.60 and the pKi is 8.00.

Regarding `CC(C)Oc1ccc2c(=O)c(-c3ccccc3)coc2c1` [IPRIFLAVONE], the IC50 result in assay [1], in assay [2], in assay [3], in assay [4] and in assay [5] was “Not Active” each time. In addition, the Ki result in assay [2], in assay [3], in assay [4] and in assay [5] was “Not Active” throughout.

For the compound `CC(C)NCC(O)c1ccc(O)c(O)c1` (centres undefined) [ISOPROTERENOL], the IC50 result in assay [1], in assay [2], in assay [3], in assay [4] and in assay [5] was “Not Active” throughout. Moreover, the Ki result in assay [2], in assay [3], in assay [4] and in assay [5] was “Not Active” throughout.

In the case of `CNC1(c2ccccc2Cl)CCCCC1=O` (centres undefined) [KETAMINE], the IC50 entry in assay [1], in assay [3], in assay [4] and in assay [5] was “Not Active” throughout. Besides, the pIC50 in assay [2] (read-out: IC50) was 6.00. Further, the pKi in assay [2] (read-out: Ki) was 6.16. Also, the Ki result in assay [3], in assay [4] and in assay [5] was “Not Active” in each case.

In the case of `C[C@H]1C[C@@H]2[C@H]([C@@H](O)C[C@@]3(C)[C@H]2CC[C@]3(O)C(=O)CO)[C@@]2(C)C=CC(=O)C=C12` [METHYLPREDNISOLONE], the IC50 entry in assay [1], in assay [2], in assay [3], in assay [4] and in assay [5] was “Not Active” in each case. The Ki entry in assay [2], in assay [3], in assay [4] and in assay [5] was “Not Active” in each case.

As to `Cc1cccc(C)c1OCC(C)N` (centres undefined) [MEXILETINE], the IC50 entry in assay [1], in assay [2], in assay [3], in assay [4] and in assay [5] was “Not Active” in each case. Moreover, the Ki result in assay [2], in assay [3], in assay [4] and in assay [5] was “Not Active” each time.

Turning to `CO[C@H]1/C=C/O[C@@]2(C)Oc3c(C)c(O)c4c(O)c(c(/C=N/N5CCN(C6CCCC6)CC5)c(O)c4c3C2=O)NC(=O)/C(C)=C\C=C\[C@H](C)[C@H](O)[C@@H](C)[C@@H](O)[C@@H](C)[C@H](OC(C)=O)[C@@H]1C` [RIFAPENTINE], the IC50 entry in assay [1], in assay [2], in assay [3], in assay [4] and in assay [5] was “Not Active” in each case. Moreover, the Ki result in assay [2], in assay [3], in assay [4] and in assay [5] was “Not Active” in each case.

With `CC[C@@H](C(=O)[C@@H](C)[C@@H](O)[C@H](C)[C@@H]1O[C@@H]([C@@H](CC)C(=O)O)CC[C@@H]1C)[C@H]1O[C@]2(C=C[C@@H](O)[C@]3(CC[C@@](C)([C@H]4CC[C@](O)(CC)[C@H](C)O4)O3)O2)[C@H](C)C[C@@H]1C` [SALINOMYCIN], the IC50 result in assay [1], in assay [2], in assay [3], in assay [4] and in assay [5] was “Not Active” throughout. Also, the Ki result in assay [2], in assay [3], in assay [4] and in assay [5] was “Not Active” each time.

With `O=C(Oc1ccccc1C(=O)O)c1ccccc1O` [SALSALATE], the IC50 result in assay [1], in assay [2], in assay [3], in assay [4] and in assay [5] was “Not Active” throughout. In addition, the Ki entry in assay [2], in assay [3], in assay [4] and in assay [5] was “Not Active” in each case.

As to `O=C(O)c1cn(-c2ccc(F)cc2)c2cc(N3CCNCC3)c(F)cc2c1=O` [SARAFLOXACIN], the IC50 entry in assay [1], in assay [2], in assay [3], in assay [4] and in assay [5] was “Not Active” each time. Besides, the Ki result in assay [2], in assay [3], in assay [4] and in assay [5] was “Not Active” each time.

In the case of `CC(C)NCC(O)c1ccc(NS(C)(=O)=O)cc1` (centres undefined) [SOTALOL], the IC50 result in assay [1], in assay [2], in assay [3], in assay [4] and in assay [5] was “Not Active” throughout. Besides, the Ki result in assay [2], in assay [3], in assay [4] and in assay [5] was “Not Active” each time.

For the compound `O.O.O.O.O.O.[Cl-].[Cl-].[Sr+2]` [STRONTIUM CHLORIDE HEXAHYDRATE], the IC50 result in assay [1], in assay [2], in assay [3], in assay [4] and in assay [5] was “Not Active” throughout. The Ki result in assay [2], in assay [3], in assay [4] and in assay [5] was “Not Active” each time.

As to `O=C1C(CC[S+]([O-])c2ccccc2)C(=O)N(c2ccccc2)N1c1ccccc1` (centres undefined) [SULFINPYRAZONE], the IC50 entry in assay [1], in assay [2], in assay [3], in assay [4] and in assay [5] was “Not Active” throughout. Further, the Ki entry in assay [2], in assay [3], in assay [4] and in assay [5] was “Not Active” throughout.

Turning to `COc1cc2nc(N3CCN(C(=O)C4CCCO4)CC3)nc(N)c2cc1OC` (centres undefined) [TERAZOSIN], the IC50 entry in assay [1], in assay [2], in assay [3], in assay [4] and in assay [5] was “Not Active” each time. The Ki entry in assay [2], in assay [3], in assay [4] and in assay [5] was “Not Active” throughout.

On to `CCCCNc1ccc(C(=O)OCCN(C)C)cc1` [TETRACAINE], for which, in assay [1], the pIC50 is 5.78. Also, the pKi in assay [1] was 6.15. Besides, the IC50 entry in assay [2], in assay [3], in assay [4] and in assay [5] was “Not Active” in each case. The Ki entry in assay [2], in assay [3], in assay [4] and in assay [5] was “Not Active” each time.

Take `Cn1c(=O)c2nc[nH]c2n(C)c1=O.O` [THEOPHYLLINE]: the IC50 result in assay [1], in assay [2], in assay [3], in assay [4] and in assay [5] was “Not Active” each time. Also, the Ki entry in assay [2], in assay [3], in assay [4] and in assay [5] was “Not Active” in each case.

Consider `CS(=O)(=O)c1ccc([C@@H](O)[C@@H](CO)NC(=O)C(Cl)Cl)cc1` [THIAMPHENICOL], for which the IC50 entry in assay [1], in assay [2], in assay [3], in assay [4] and in assay [5] was “Not Active” each time. For the same compound, the Ki result in assay [2], in assay [3], in assay [4] and in assay [5] was “Not Active” each time.

Take `CCN(CC)CCNC(=O)c1cc(S(C)(=O)=O)ccc1OC` [TIAPRIDE]: the IC50 result in assay [1], in assay [2], in assay [3], in assay [4] and in assay [5] was “Not Active” in each case. In addition, the Ki result in assay [2], in assay [3], in assay [4] and in assay [5] was “Not Active” throughout.
